# From US20160220609A1, “REGULATION OF STEROIDOGENIC ACTIVITY BY USING PURIFIED SHILAJIT” (NATREON, INC., priority 2013, published 2016)
# Tested on: steroidogenic genes in mouse skeletal muscle
# Assay: Gene expression profiling (Affymetrix GeneChip) of skeletal muscle of mice supplemented for 12 weeks
# Assay type: in vivo
# Details: 10 mg/kg body weight intragastric in DMSO/corn oil
# Method: Procedure for Studies in Mice Using Shilajit and DBPs:
# Three groups of adult mice (n=8) were intragastrically supplemented with purified Shilajit (PS), 3,8-(OH)2-DBP, or placebo for 12 weeks. At the end of week 12, skeletal muscle tissue was harvested for gene profiling. Some tissue was stored for histology and HPLC analysis.
# The control group of mice received DMSO in corn oil while the PS group received 100 mg of purified Shilajit/kg body weight of mice, dissolved in water and the DBP group received 10 mg of 3,8-(OH)2-DBP/kg body weight of mice, dissolved in DMSO/corn oil.
# At week 12, the following tissues were collected from mice: heart, lung, liver, brain, muscles, adipose tissue, skeletal muscle (vastus lateralis) and whole blood.
# Gene Expression Profiling using GeneChip® Assay
# Affymetrix GeneChip® technology (Affymetrix, Santa Clara, Calif.) was used for transcriptome profiling of skeletal muscle tissue. Gene chip assays were performed in accordance with the following references: Roy, S., Biswas, S., Khanna, S., Gordillo, G., Bergdall, V., Green, J., Marsh, C. B., Gould, L. J., Sen, C. K., “Characterization of a preclinical model of chronic ischemic wound,” Physiol. Genomics (2009) May 13; 37(3):211-24; Roy, S., Khanna, S., Rink, C., Biswas, S., Sen, C. […]
structure (smiles),measurement,value
"O=c1oc2cc(O)ccc2c2ccc(O)cc12 [3,8-(OH)2-DBP, 3,8-dihydroxy-dibenzo-a-pyrone]",Effect on steroidogenic activity in mice,did not show significant effect
